Test results reported in PubChem BioAssay AID2060892 (Molecular Pharmacology Branch, DTP, NCI, 2025).

System: HOP-62 complex spheroids with HUVEC/MSC, viability
Assay: Anticancer human tumor HOP-62 cell line growth inhibition [RAS];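 note: spheroids exposed to agents for seven days before readout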;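 for viability, T/C: 100% = DMSO vehicle control viability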
Conditions: for viability, T/C: stronger effect = lower value
Outline: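 Agents were tested in combination matrices in half-log decrements from a top concentration at or near clinical Cmax (10 microM if undetermined). Targets were multi-cell spheroids of tumour lines plus HUVEC and MSC stromal cells.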

[1] = compound alone, run of 07/09/2024

C=CC(=O)Nc1cc(Nc2nccc(-c3cn(C)c4ccccc34)n2)c(OC)cc1N(C)CCN(C)C + CCn1c(-c2cccnc2C(C)OC)c2c3cc(ccc31)N1CCOC(CC(NC(=O)C(C(C)C)N(C)C(=O)C3(F)CCN(C(=O)C#CC(C)(C)N(C)C)CC3)C(=O)N3CCCC(N3)C(=O)OCC(C)(C)C2)C1
IC50 (curve of first compound, second compound 0.000949 µM): > 1000 nM | IC50 (curve of first compound, second compound 0.003 µM): > 1000 nM | IC50 (curve of first compound, second compound 0.00949 µM): > 1000 nM | IC50 (curve of first compound, second compound 0.03 µM): > 1000 nM | IC50 (curve of first compound, second compound 0.0949 µM): > 1000 nM | IC50 (curve of first compound, second compound 0.3 µM): > 1000 nM | viability, T/C (second compound 0.000949 µM, first compound 0.00316 µM): 100% | viability, T/C (second compound 0.000949 µM, first compound 0.01 µM): 107% | viability, T/C (second compound 0.000949 µM, first compound 0.0316 µM): 83.9% | viability, T/C (second compound 0.000949 µM, first compound 0.1 µM): 112% | viability, T/C (second compound 0.000949 µM, first compound 0.316 µM): 100% | viability, T/C (second compound 0.000949 µM, first compound 1 µM): 54% | viability, T/C (second compound 0.003 µM, first compound 0.00316 µM): 94.1% | viability, T/C (second compound 0.003 µM, first compound 0.01 µM): 95.4% | viability, T/C (second compound 0.003 µM, first compound 0.0316 µM): 94.1% | viability, T/C (second compound 0.003 µM, first compound 0.1 µM): 105% | viability, T/C (second compound 0.003 µM, first compound 0.316 µM): 103% | viability, T/C (second compound 0.003 µM, first compound 1 µM): 71.7% | viability, T/C (second compound 0.00949 µM, first compound 0.00316 µM): 92.3% | viability, T/C (second compound 0.00949 µM, first compound 0.01 µM): 84.2% | viability, T/C (second compound 0.00949 µM, first compound 0.0316 µM): 85.3% | viability, T/C (second compound 0.00949 µM, first compound 0.1 µM): 90.4% | viability, T/C (second compound 0.00949 µM, first compound 0.316 µM): 73.4% | viability, T/C (second compound 0.00949 µM, first compound 1 µM): 54.6% | viability, T/C (second compound 0.03 µM, first compound 0.00316 µM): 97.5% | viability, T/C (second compound 0.03 µM, first compound 0.01 µM): 90.5% | viability, T/C (second compound 0.03 µM, first compound 0.0316 µM): 83.4% | viability, T/C (second compound 0.03 µM, first compound 0.1 µM): 78.6% | viability, T/C (second compound 0.03 µM, first compound 0.316 µM): 60.1% | viability, T/C (second compound 0.03 µM, first compound 1 µM): 66.3% | viability, T/C (second compound 0.0949 µM, first compound 0.00316 µM): 96.7% | viability, T/C (second compound 0.0949 µM, first compound 0.01 µM): 80% | viability, T/C (second compound 0.0949 µM, first compound 0.0316 µM): 84.2% | viability, T/C (second compound 0.0949 µM, first compound 0.1 µM): 67.3% | viability, T/C (second compound 0.0949 µM, first compound 0.316 µM): 64.3% | viability, T/C (second compound 0.0949 µM, first compound 1 µM): 58.6% | viability, T/C (second compound 0.3 µM, first compound 0.00316 µM): 84% | viability, T/C (second compound 0.3 µM, first compound 0.01 µM): 84% | viability, T/C (second compound 0.3 µM, first compound 0.0316 µM): 73.5% | viability, T/C (second compound 0.3 µM, first compound 0.1 µM): 62.1% | viability, T/C (second compound 0.3 µM, first compound 0.316 µM): 60.2% | viability, T/C (second compound 0.3 µM, first compound 1 µM): 54.6%

CCn1c(-c2cccnc2C(C)OC)c2c3cc(ccc31)N1CCOC(CC(NC(=O)C(C(C)C)N(C)C(=O)C3(F)CCN(C(=O)C#CC(C)(C)N(C)C)CC3)C(=O)N3CCCC(N3)C(=O)OCC(C)(C)C2)C1 (stereo unspecified)
viability, T/C (compound 0.000949 µM): 107% [middle of 8 runs] | viability, T/C (compound 0.003 µM): 99.7% [middle of 8 runs] | viability, T/C (compound 0.00949 µM): 90.7% [middle of 8 runs] | viability, T/C (compound 0.03 µM): 90.4% [middle of 8 runs] | viability, T/C (compound 0.0949 µM): 85.9% [middle of 8 runs] | viability, T/C (compound 0.3 µM): 83.2% [middle of 8 runs] | IC50 [1]: > 300 nM

CCn1c(-c2cc(N3CCN(C)CC3)cnc2C(C)OC)c2c3cc(ccc31)-c1csc(n1)CC(NC(=O)C1CC1C)C(=O)N1CCCC(N1)C(=O)OCC(C)(C)C2 (stereo unspecified)
viability, T/C (compound 0.000949 µM): 117% [middle of 8 runs] | viability, T/C (compound 0.003 µM): 99.9% [middle of 7 runs] | viability, T/C (compound 0.00949 µM): 73.3% [middle of 8 runs] | viability, T/C (compound 0.03 µM): 52.7% [middle of 8 runs] | viability, T/C (compound 0.0949 µM): 39.1% [middle of 8 runs] | viability, T/C (compound 0.3 µM): 39.4% [middle of 8 runs] | IC50 [1]: 35.9 nM [middle of 8 runs]
